Results published in patent publication US12612387B2, “RAS inhibitors and methods of using the same” (Jazz Pharmaceuticals Ireland Limited, priority 2020, dated 2026).

How the values were obtained:
[1] = molecular target: T1, K-RAS G12C (Homo sapiens, UniProt P01116, G12C); assay: Compound depletion assay, K-RAS G12C; format: binding; details: G12C protein 20 μM, compound 8 μM, 25° C.
T1 construct: His tag; purchased Stratech
Method: (§1) Compound Depletion Assay Method
(§2) Lyophilized human K-RAS (12 Cys) protein (His tag) and human K-RAS (12 Asp) protein (His tag) were purchased from Stratech and reconstituted at 30 μM in water. The protein concentration of K-RAS G12C and K-RAS G12D was adjusted to 20 μM in K-RAS Assay Buffer (20 mM HEPES pH 7.5, 150 mM NaCl, 1 mM MgCl2). A 49 μl aliquot of protein solution was transferred to 1.5 ml eppendorfs and incubated at room temperature for 10 minutes. A 1 μl aliquot of compound solution in DMSO was added to the protein solutions in the 1.5 ml eppendorfs to initiate the reaction, with a final assay compound concentration of 8 μM. Reactions were agitated at 25° C., 700 rpm. At each time point (0, 30, 180, 360, 1440 minutes), 10 μl of the reaction mixture was removed, added to 30 μl quench solution (0.3% formic acid, 75 nM propranolol in acetonitrile) to stop the reaction and stored at 4° C. Once all reactions were quenched, the samples were centrifuged at 16000 g for 10 minutes to pellet the protein and salts. A 10 μl aliquot of supernatant containing compound was diluted in 50:50 acetonitrile:H2O in a 96 well plate. The plates were heat sealed and the samples analysed by LC-MS/MS to determine the concentration of compound remaining in the samples. To determine the reaction progress, the compound signal was normalized to the internal standard signal (propranolol). The decrease in free compound concentration is shown as a percentage over time, with the […] at time zero fixed at one hundred percent. Compound is assumed to be completely depleted when no longer detectable with a double blank sample as reference.

[2] = molecular target: T2, K-RAS G12D (Homo sapiens, UniProt P01116, G12D); assay: Compound depletion assay, K-RAS G12D; format: binding; details: G12D protein 20 μM, compound 8 μM, 25° C.
T2 construct: His tag; purchased Stratech
Method: as §1, §2

T1 sequence (P01116 1-188 isoform P01116-2 G12C): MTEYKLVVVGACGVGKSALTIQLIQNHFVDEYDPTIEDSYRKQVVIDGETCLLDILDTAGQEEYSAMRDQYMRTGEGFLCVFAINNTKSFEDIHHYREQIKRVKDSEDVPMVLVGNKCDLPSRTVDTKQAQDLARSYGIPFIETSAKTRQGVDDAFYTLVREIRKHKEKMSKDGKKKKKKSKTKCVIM
T2 sequence (P01116 1-188 isoform P01116-2 G12D): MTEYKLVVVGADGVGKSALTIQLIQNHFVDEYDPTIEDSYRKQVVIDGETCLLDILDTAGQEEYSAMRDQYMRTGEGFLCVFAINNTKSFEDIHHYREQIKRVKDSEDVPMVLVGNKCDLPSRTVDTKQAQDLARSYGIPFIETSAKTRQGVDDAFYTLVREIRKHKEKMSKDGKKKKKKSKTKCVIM

| Structure (SMILES) | 3 hr Category (compound remaining at timepoint) [1] | 24 hr Category (compound remaining at timepoint) [1] | 3 hr Category (compound remaining at timepoint) [2] | 24 hr Category (compound remaining at timepoint) [2] | 30 min Category (compound remaining at timepoint) [1] | 6 hr Category (compound remaining at timepoint) [1] | 30 min Category (compound remaining at timepoint) [2] | 6 hr Category (compound remaining at timepoint) [2] |
| --- | --- | --- | --- | --- | --- | --- | --- | --- |
| C=CC(=O)N1CCN(c2cc(C(=O)N(C)c3cccc4ccccc34)nc(OC[C@@H]3CCCN3C)n2)CC1 [Example 13, N-methyl-2-[[(2S)-1-methylpyrrolidin-2-yl]methoxy]-N-(1-naphthyl)-6-(4-prop-2-enoylpiperazin-1-yl)pyrimidine-4-carboxamide] | A (≥70% compound remaining at timepoint) | A (≥70% compound remaining at timepoint) | A (≥70% compound remaining at timepoint) | A (≥70% compound remaining at timepoint) | – | – | – | – |
| C=CC(=O)N1CCN(c2cc(C(=O)Nc3cc(O)cc4ccccc34)nc(NC[C@@H]3CCCN3Cc3ccccc3)n2)C[C@@H]1CC#N [Example 44, 2-[[(2S)-1-benzylpyrrolidin-2-yl]methylamino]-6-[(3S)-3-(cyanomethyl)-4-prop-2-enoyl-piperazin-1-yl]-N-(3-hydroxy-1-naphthyl)pyrimidine-4-carboxamide] | B (30%-70% compound remaining at timepoint) | – | A (≥70% compound remaining at timepoint) | – | A (≥70% compound remaining at timepoint) | B (30%-70% compound remaining at timepoint) | A (≥70% compound remaining at timepoint) | A (≥70% compound remaining at timepoint) |
| C=CC(=O)N1CCN(c2cc(C(=O)Nc3cc(O)cc4ccccc34)nc(-c3cccc4cnn(C)c34)n2)C[C@@H]1CC#N [Example 39, 6-[(3S)-3-(cyanomethyl)-4-prop-2-enoyl-piperazin-1-yl]-N-(3-hydroxy-1-naphthyl)-2-(1-methylindazol-7-yl)pyrimidine-4-carboxamide] | B (30%-70% compound remaining at timepoint) | – | A (≥70% compound remaining at timepoint) | – | A (≥70% compound remaining at timepoint) | B (30%-70% compound remaining at timepoint) | A (≥70% compound remaining at timepoint) | A (≥70% compound remaining at timepoint) |
| C=CC(=O)N1CCN(c2cc(C(=O)Nc3cc(O)cc4ccccc34)nc(OCCC3CCCN3C)n2)C[C@@H]1CC#N (stereo partly drawn) [Example 47, 6-[(3S)-3-(cyanomethyl)-4-prop-2-enoyl-piperazin-1-yl]-N-(3-hydroxy-1-naphthyl)-2-[2-(1-methylpyrrolidin-2-yl)ethoxy]pyrimidine-4-carboxamide] | C (≤30% compound remaining at timepoint) | – | A (≥70% compound remaining at timepoint) | – | C (≤30% compound remaining at timepoint) | C (≤30% compound remaining at timepoint) | A (≥70% compound remaining at timepoint) | A (≥70% compound remaining at timepoint) |
| C=CC(=O)N1CCN(c2cc(C(=O)Nc3cccc4ccccc34)nc(-c3cccnc3)n2)CC1 [Example 09, N-(1-naphthyl)-6-(4-prop-2-enoylpiperazin-1-yl)-2-(3-pyridyl)pyrimidine-4-carboxamide] | A (≥70% compound remaining at timepoint) | B (30%-70% compound remaining at timepoint) | A (≥70% compound remaining at timepoint) | A (≥70% compound remaining at timepoint) | – | A (≥70% compound remaining at timepoint) | A (≥70% compound remaining at timepoint) | A (≥70% compound remaining at timepoint) |
| C=CC(=O)N1CCN(c2cc(C(=O)Nc3ccc(O)cc3)nc(OC[C@@H]3CCCN3C)n2)CC1 [Example 05] | A (≥70% compound remaining at timepoint) | A (≥70% compound remaining at timepoint) | A (≥70% compound remaining at timepoint) | A (≥70% compound remaining at timepoint) | – | – | – | – |
| C=CC(=O)N1CCN(c2cc(C(=O)Nc3cc(O)cc4ccccc34)nc(-c3cccnc3)n2)C[C@@H]1CC#N [Example 25, 6-[(3S)-3-(cyanomethyl)-4-prop-2-enoyl-piperazin-1-yl]-N-(3-hydroxy-1-naphthyl)-2-(3-pyridyl)pyrimidine-4-carboxamide] | A (≥70% compound remaining at timepoint) | – | A (≥70% compound remaining at timepoint) | – | A (≥70% compound remaining at timepoint) | A (≥70% compound remaining at timepoint) | A (≥70% compound remaining at timepoint) | A (≥70% compound remaining at timepoint) |
| C=CC(=O)N1CCN(c2cc(C(=O)Nc3cc(O)cc4ccccc34)nc(OC[C@H]3CCCN3C)n2)C[C@@H]1CC#N [Example 34, 6-[(3S)-3-(cyanomethyl)-4-prop-2-enoyl-piperazin-1-yl]-N-(3-hydroxy-1-naphthyl)-2-[[(2R)-1-methylpyrrolidin-2-yl]methoxy]pyrimidine-4-carboxamide] | C (≤30% compound remaining at timepoint) | – | A (≥70% compound remaining at timepoint) | – | B (30%-70% compound remaining at timepoint) | C (≤30% compound remaining at timepoint) | A (≥70% compound remaining at timepoint) | A (≥70% compound remaining at timepoint) |
| C=CC(=O)N1CCN(c2cc(C(=O)Nc3cc(O)cc4ccccc34)nc(OCc3ccnn3C)n2)C[C@@H]1CC#N [Example 35, 6-[(3S)-3-(cyanomethyl)-4-prop-2-enoyl-piperazin-1-yl]-N-(3-hydroxy-1-naphthyl)-2-[(2-methylpyrazol-3-yl)methoxy]pyrimidine-4-carboxamide] | C (≤30% compound remaining at timepoint) | – | A (≥70% compound remaining at timepoint) | – | B (30%-70% compound remaining at timepoint) | C (≤30% compound remaining at timepoint) | A (≥70% compound remaining at timepoint) | A (≥70% compound remaining at timepoint) |
| C=CC(=O)N1CCN(c2cc(C(=O)Nc3cc(O)cc4ccccc34)nc(OC[C@@H]3CCCN3C(C)C)n2)C[C@@H]1CC#N [Example 54, 6-[(3S)-3-(cyanomethyl)-4-prop-2-enoyl-piperazin-1-yl]-N-(3-hydroxy-1-naphthyl)-2-[[(2S)-1-isopropylpyrrolidin-2-yl]methoxy]pyrimidine-4-carboxamide] | C (≤30% compound remaining at timepoint) | – | A (≥70% compound remaining at timepoint) | – | C (≤30% compound remaining at timepoint) | C (≤30% compound remaining at timepoint) | A (≥70% compound remaining at timepoint) | A (≥70% compound remaining at timepoint) |
| C=CC(=O)N1CCN(c2cc(C(=O)Nc3cccc4[nH]ncc34)nc(OC[C@@H]3CCCN3C)n2)CC1 [Example 22, N-(1H-indazol-4-yl)-2-[[(2S)-1-methylpyrrolidin-2-yl]methoxy]-6-(4-prop-2-enoylpiperazin-1-yl)pyrimidine-4-carboxamide] | A (≥70% compound remaining at timepoint) | A (≥70% compound remaining at timepoint) | A (≥70% compound remaining at timepoint) | A (≥70% compound remaining at timepoint) | – | – | – | – |
| C=CC(=O)N1CCN(c2cc(C(=O)Nc3ccccc3O)nc(OC[C@@H]3CCCN3C)n2)CC1 [Example 06, N-(2-hydroxyphenyl)-2-[[(2S)-1-methylpyrrolidin-2-yl]methoxy]-6-(4-prop-2-enoylpiperazin-1-yl)pyrimidine-4-carboxamide] | A (≥70% compound remaining at timepoint) | A (≥70% compound remaining at timepoint) | A (≥70% compound remaining at timepoint) | A (≥70% compound remaining at timepoint) | – | – | – | – |
